{"source": "patent US12485117B2", "about": "“Compositions and methods for activating signaling through the CB1 cannabinoid receptor for treating and preventing diseases and disorders characterized by abnormal cellular accumulation of sphingolipids such as sphingomyelin” (Wylder Nation Foundation, priority 2018, dated 2025)", "assay_type_in_all_cases": "cell-based, mouse", "key": {"[1]": {"tested_on": "cultured primary hippocampal neurons from ASMko mice", "test": "Sphingomyelin levels by enzymatic assay in cultured primary hippocampal neurons from ASMko mice", "description": "(§1) FIGS. 5A-5D show sphingomyelin and endocannabinoid levels in cultured primary hippocampal neurons and hippocampal tissue, respectively, from ASMko and wildtype mice.\nStatistical significance Student's t-test, *P<0.05, **P<0.005, n=3 independent cultures.\nStatistical significance Student's t-test, **P<0.005, n=3 independent cultures.\nAnandamide (AEA) is the major endogenous CB1 ligand. We therefore tested whether increased levels of anandamide affected sphingomyelin levels in cultured primary hippocampal neurons from ASMko mice. Anandamide was increased in two ways: • 1. By incubating the neuronal cultures with exogenous anandamide; and • 2. By incubating the neuronal cultures with PF-04457845, which is an inhibitor of the anandamide hydrolytic enzyme FAAH. Inhibition of FAAH causes accumulation of anandamide by inhibiting FAAH-mediated hydrolyzation of anandamide.\nThe following experiments were performed in three independent cultures of hippocampal neurons derived from ASMko mice. Treatments were done at 11-13 days in vitro when these cells are considered mature and functional.\nTo set the optimal conditions for such hydrolysis in terms of concentration and time of incubation, anandamide was added to the culture medium of mature ASMko hippocampal neurons at 0, 5, 25, 50 and 100 μM for 30 minutes or 1 hour. […] The optimal conditions for SM degradation were in a range of concentration of 25-50 μM for 1 hour. […] We therefore decided to use 25 μM anandamide for 1-hour incubation time in our next experiments.\nSimilar to the anandamide dose/time response experiment above, we performed another dose response experiment using URB597 (URB), an inhibitor of the anandamide-hydrolyzing enzyme FAAH, to be used as reference for the other FAAH inhibitors. The experiments were done in the presence or absence of exogenous anandamide. URB was added to the culture medium of ASMko mature neurons at 0, 5, 25 and 50 μM for 1 hour with or without □□ μM anandamide.\nWe next compared URB efficacy to reduce SM levels with that of other FAAH inhibitors PF-04457845 (PF) and JNJ-1661010 (JNJ)."}, "[2]": {"tested_on": "wildtype cultured neurons", "test": "Sphingomyelin levels in wildtype cultured neurons", "conditions": "wildtype (FIG. 5D)", "description": "as §1\nIt has been shown that mGluR activation promotes 2-AG synthesis and CB1 stimulation (Maccarrone et al., Nat Neurosci 2008). We therefore sought to determine whether activation of mGluR5 with the allosteric activator CDPPB might induce sphingomyelin breakdown in ASMko neurons. […] Thus, the effect of decreased CB1 expression might be further exacerbated by decrease in endogenous endocannabinoid signaling, at least via 2-AG."}, "[3]": {"tested_on": "permeabilized ASMko neurons", "test": "Lysenin staining of SM in intracellular compartments of permeabilized ASMko neurons", "conditions": "1 hour at 50 μM (FIG. 9)", "experimental": "Statistical significance Student's t-test, *P<0.05, n=3 independent cultures.\nTo determine whether SM hydrolysis induced by FAAH inhibitors was taking place not only at the cell surface, but also in intracellular compartments, we performed staining with lysenin, a worm toxin that specifically binds to SM, in permeabilized ASMko neurons non-treated or treated with anandamide, URB, PF-04457845 or JNJ for 1 hour at 50 μM."}, "ASMko cultured neurons [4]": {"tested_on": "ASMko cultured neurons", "test": "MAP2 immunofluorescence of dendrites in ASMko cultured neurons", "conditions": "50 μM for 1 hour"}, "ASMko cultured neurons [5]": {"tested_on": "ASMko cultured neurons", "test": "TUNEL assay of neuronal death in ASMko cultured neurons", "conditions": "50 μM for 1 hour", "experimental": "FIG. 10B is a graph showing mean±SEM percentage of apoptotic cells, measured by TUNEL assay, with respect to the positive control in which the cells were treated with H202.\nThe percentage of dying neurons showing DNA fragmentation was 5-8% in the treated ASMko cultures similar to the non-treated ones."}}, "data": [{"smiles": "N#Cc1cccc(C(=O)Nc2cc(-c3ccccc3)nn2-c2ccccc2)c1", "note": "[CDPPB, 3-Cyano-N-(1,3-diphenyl-1H-pyrazol-5-yl)benzamide]", "values": [{"measurement": "sphingomyelin levels", "setting": "[1]; 15 μM, ASMko cultured neurons (FIG. 5D)", "result": "significant decreases in sphingomyelin levels"}, {"measurement": "sphingomyelin levels", "setting": "[2]", "result": "did not affect sphingomyelin levels"}]}, {"smiles": "Cl.Cl.O=C(/C=C/c1ccc(/C=C/C(=O)Nc2ccc(C3=NCCN3)cc2)cc1)Nc1ccc(C2=NCCN2)cc1", "note": "[GW4869]", "values": [{"measurement": "effect of co-incubation with the neutral sphingomyelinase inhibitor on the sphingomyelin reduction by anandamide or PF-04457845", "setting": "[1]; ASMko neurons, 1 hour (FIG. 5A)", "result": "prevented"}]}, {"smiles": "O=C(Nc1ccccc1)N1CCN(c2nc(-c3ccccc3)ns2)CC1", "note": "[JNJ-1661010]", "values": [{"measurement": "SM hydrolysis", "setting": "[1]; 50 μM and 1 hour (FIG. 8)", "result": "promoted SM hydrolysis"}, {"measurement": "SM levels in intracellular compartments (lysenin staining)", "setting": "[3]", "result": "variable tendency to SM reduction that was not statistically significant"}, {"measurement": "morphology, length, appearance of dendrites (MAP2)", "setting": "ASMko cultured neurons [4]", "result": "did not alter the morphology, length or homogeneous appearance of dendrites"}, {"measurement": "neuronal death as assessed by TUNEL", "setting": "ASMko cultured neurons [5]", "result": "did not induce neuronal death"}]}, {"smiles": "NC(=O)c1cccc(-c2cccc(OC(=O)NC3CCCCC3)c2)c1", "note": "[URB597]", "values": [{"measurement": "SM levels, dose response", "setting": "[1]; 0, 5, 25 and 50 μM for 1 hour, without exogenous anandamide (FIG. 7)", "result": "dose dependent reduction of SM levels"}, {"measurement": "SM hydrolysis", "setting": "[1]; 50 μM and 1 hour (FIG. 8)", "result": "promoted SM hydrolysis"}, {"measurement": "efficacy to reduce SM levels compared among FAAH inhibitors", "setting": "[1]; 50 μM and 1 hour (FIG. 8)", "result": "most reliable and efficient"}, {"measurement": "SM levels in intracellular compartments (lysenin staining)", "setting": "[3]", "result": "significantly reduced SM levels"}, {"measurement": "morphology, length, appearance of dendrites (MAP2)", "setting": "ASMko cultured neurons [4]", "result": "did not alter the morphology, length or homogeneous appearance of dendrites"}, {"measurement": "neuronal death as assessed by TUNEL", "setting": "ASMko cultured neurons [5]", "result": "did not induce neuronal death"}]}, {"smiles": "CCCCC/C=C\\C/C=C\\C/C=C\\C/C=C\\CCCC(=O)NCCO", "note": "[anandamide]", "values": [{"measurement": "SM hydrolysis, dose and time response", "setting": "[1]; 0, 5, 25, 50 and 100 μM for 30 minutes or 1 hour (FIG. 6)", "result": "induced SM hydrolysis in a dose and time dependent manner"}, {"measurement": "SM reduction at very high concentration", "setting": "[1]; 100 μM", "result": "SM reduction was prevented"}, {"measurement": "optimal concentration for SM degradation", "setting": "[1]; 1 hour", "result": "25 to 50", "unit": "µM"}, {"measurement": "sphingomyelin levels", "setting": "[1]; ASMko neurons, 1 hour incubation (FIG. 5A)", "result": "reduced sphingomyelin levels"}, {"measurement": "effect of addition of exogenous anandamide on SM hydrolysis by FAAH inhibitors", "setting": "[1]; FAAH inhibitors at 50 μM, 1 hour", "result": "did not further enhance SM hydrolysis"}, {"measurement": "SM reduction with URB and anandamide versus URB alone", "setting": "[1]; URB concentrations other than the lowest, 1 hour", "result": "SM reduction was similar"}, {"measurement": "effect of anandamide addition on SM reduction by URB", "setting": "[1]; lowest URB concentration, 1 hour", "result": "synergized the action of URB"}, {"measurement": "SM levels in intracellular compartments (lysenin staining)", "setting": "[3]", "result": "variable tendency to SM reduction that was not statistically significant"}, {"measurement": "morphology, length, appearance of dendrites (MAP2)", "setting": "ASMko cultured neurons [4]", "result": "did not alter the morphology, length or homogeneous appearance of dendrites"}, {"measurement": "neuronal death as assessed by TUNEL", "setting": "ASMko cultured neurons [5]", "result": "did not induce neuronal death"}]}]}
